Values quoted from earlier work as cited in patent publication US20250288673A1, “GENE THERAPY FOR THE TREATMENT OF ACTIVATED PI3KINASE DELTA SYNDROME TYPE 1 (APDS1)” (Cellectis SA, priority 2022, published 2025).

Assays:
[1] = after administration; cited from earlier work
PI3Kδ = settings: APDS1 treatment; cited from earlier work

Row | SMILES | side effects outside of the immune system [1] | effect on lymphadenopathy and immune B cell subpopulations (PI3Kδ)
1 | CO[C@H]1C[C@@H]2CC[C@@H](C)[C@@](O)(O2)C(=O)C(=O)N2CCCC[C@H]2C(=O)O[C@H]([C@H](C)C[C@@H]2CC[C@@H](O)[C@H](OC)C2)CC(=O)[C@H](C)/C=C(\C)[C@@H](O)[C@@H](OC)C(=O)[C@H](C)C[C@H](C)/C=C/C=C/C=C/1C [Rapamycin] | proteinuria was observed | –
2 | [O-][n+]1cccc(-c2nc3c(Cl)cccc3cc2[C@@H](Nc2ncnc3cccnc23)C(F)(F)F)c1 [Seletalisib] | liver toxicity | reduction in lymphadenopathy and normalization of immune B cell subpopulations
